“Also recorded” adds a separate entry of the source.
Legend:
[1] = system: luciferase RNA containing a UGA premature termination codon; experiment: in vitro translation nonsense suppression assay in HeLa cell extract; assay type: biochemical, human; conditions: FIG. 4
Method: This Example describes a method of preparing a cell extract to perform in vitro translation reactions to monitor nonsense suppression or to produce proteins in vitro. This method is different from other methods used to prepare translation extracts for several reasons.
HeLa S3 cells were grown to a density of 10^6 cells/ml in DMEM; 5% CO2, 10% FBS, 1×P/S in a spinner flask. Cells were harvested by spinning at 1000×g. Cells were washed twice with phosphate buffered saline. The cell pellet sat on ice for 12 to 24 hours before proceeding. By letting the cells sit on ice, the activity of the extract is increased two-fold. The length of time on ice can range from 0 hours to 1 week. The cells were resuspended in 1.5 volumes (packed cell volume) of hypotonic buffer (10 mM HEPES (KOH) pH 7.4; 15 mM KCl; 1.5 mM Mg(OAc)2; 0.5 mM Pefabloc (Roche); 2 mM DTT). Cells were allowed to swell for 5 minutes on ice and dounce homogenized with 10 to 100 strokes using a tight-fitting pestle. The cells were spun for 10 minutes at 12000×g at 4° C. in a Sorvall SS-34 rotor. […]
Further, in the presence of the aminoglycoside gentamicin, nonsense suppression activity (as measured by the amount of luciferase activity produced from a luciferase RNA containing a UGA premature termination codon) is increased 2 to 3 fold above untreated extracts (see FIG. 4). […]

[2] = system: mRNA containing a UGA premature termination codon; experiment: biochemical assay: rabbit reticulocyte lysate and nonsense-containing luciferase reporter mRNA
Source text: (§1) Two assays were developed for use in high throughput screens to identify small molecules that promote nonsense suppression. Each assay utilized luciferase because it is a functional reporter gene assay (light is only produced if the protein is functional) and it is extremely sensitive (Light intensity is proportional to luciferase concentration in the nM range). The first assay was a cell-based luciferase reporter assay and the second was a biochemical assay consisting of rabbit reticulocyte lysate and a nonsense-containing luciferase reporter mRNA. In the cell-based assay, a luciferase reporter construct containing a UGA premature termination codon was stably transfected in 293T Human Embryonic Kidney cells. In the biochemical assay, mRNA containing a UGA premature termination codon was used as a reporter in an in vitro translation reaction using rabbit reticulocyte lysate supplemented with tRNA, hemin, creatine kinase, amino acids, KOAc, Mg(OAc)2, and creatine phosphate. […] Synthetic mRNA was prepared in vitro using the T7 promoter and the MegaScript in vitro transcription kit (Ambion).

[3] = system: luciferase reporter construct containing a UGA premature termination codon in 293T Human Embryonic Kidney cells; experiment: cell-based luciferase reporter assay, stable cell line
Source text: as §1
Compound A and Compound B increase the level of nonsense suppression in the biochemical assay three to four fold over untreated extracts. […]

[4] = system: UGA, UAA or UAG nonsense alleles of luciferase; experiment: nonsense suppression in cells transiently transfected with luciferase nonsense alleles in each codon context; assay type: cell-based; conditions: 3 mg/ml, overnight
Method: Cells were transiently transfected with plasmids harboring the UGA, UAA or UAG nonsense alleles of luciferase in each codon context (UGAA, UGAC, UGAG, UGAU, UAGA, UAGC, UAGG, UAGU, UAAA, UAAC, UAAG, and UAAU) then the cells were treated overnight with Compound A, and gentamicin. The following day, the level of suppression was determined by measuring the amount of luminescence produced. The fold suppression above control cells treated with solvent was calculated and is numerically reported.

dystrophin [5] = experiment: dystrophin immunostaining in mdx mouse primary skeletal muscle cultures; assay type: cell-based; conditions: 200 μM
Method: FIG. 9. Immunohistochemistry of myotubes from primary cell culture from mdx muscle. The presence of dystrophin was detected by mAb to the COOH-terminus of dystrophin ([…]) followed by a rhodamine-conjugated anti-mouse IgG. […] Little dystrophin was detected in untreated mdx myotubes (right).
Mouse primary skeletal muscle cultures derived from 1-day old mdx mice were prepared as described previously (Barton-Davis et al., 1999, J Clin Invest. 104(4):375-381). Cells were cultured for 10 days in the presence of Compound A (20 μM). Culture medium was replaced every four days and the presence of dystrophin in myoblast cultures was detected by immunostaining as described previously (Barton-Davis et al., 1999, J Clin Invest. 104(4):375-381). A primary monoclonal antibody to the C-terminus of the dystrophin protein (F19A12) was used undiluted and rhodamine conjugated anti-mouse IgG was used as the secondary antibody. The F19A12 antibody will detect the full-length protein produced by suppression of the nonsense codon. Staining was viewed using a Leica DMR micropscope, digital camera, and associated imaging software at the University of Pennsylvania.

dystrophin [6] = experiment: dystrophin immunofluorescence of tibialis anterior muscle of mdx mice treated by Alzet osmotic pumps; assay type: in vivo, mouse; conditions: tissue exposure approximately 200 μM, osmotic pump
Method: FIG. 10A-10F. Immunohistochemistry of muscle cross-sections to view dystrophin. […] Muscle from untreated mdx mice (panel E) or from cross sections not treated with primary antibody (panel F) show only minimal staining.
As previously described (Barton-Davis et al., 1999, J Clin Invest. 104(4):375-381), compound was delivered by Alzet osmotic pumps implanted under the skin of anesthetized mice. Two doses of Compound A were administered. Gentamicin served as a positive control and pumps filled with solvent only served as the negative control. Pumps were loaded with appropriate compound such that the calculated doses to which tissue was exposed were 10 μM and 20 μM. The gentamicin concentration was calculated to achieve tissue exposure of approximately 200 μM. In the initial experiment, mice were treated for 14 days, after which animals were anesthetized with ketamine and exsanguinated. The tibialis anterior (TA) muscle of the experimental animals was then excised, frozen, and used for immunofluorescence analysis of dystrophin incorporation into striated muscle. The presence of dystrophin in TA muscles was detected by immunostaining, as described previously (Barton-Davis et al., 1999, J Clin Invest. 104(4):375-381; see mdx primary cells in Section 7.8 supra).

With gentamicin the “nonsense suppression activity (luciferase activity from luciferase RNA containing a UGA premature termination codon) above untreated extracts” value [1] was 2 to 3 fold, the “luciferase activity on addition of compound” value [2] was “increased luciferase activity” and the “luciferase activity on addition of compound” value [3] was “increased luciferase activity”. For the same substance, the “fold suppression above control cells treated with solvent” value ([4]; context UAAA) was 0.71 fold, the “fold suppression above control cells treated with solvent” value ([4]; context UAAC) was 2.32 fold and the “fold suppression above control cells treated with solvent” value ([4]; context UAAG) was 0.01 fold. The “fold suppression above control cells treated with solvent” value ([4]; context UAAU) was 0.92 fold, the “fold suppression above control cells treated with solvent” value ([4]; context UAGA) was 1.31 fold and the “fold suppression above control cells treated with solvent” value ([4]; context UAGC) was 2.16 fold. The “fold suppression above control cells treated with solvent” value ([4]; context UAGG) was 0.64 fold, the “fold suppression above control cells treated with solvent” value ([4]; context UAGU) was 0.54 fold and the “fold suppression above control cells treated with solvent” value ([4]; context UGAA) was 0.76 fold. The “fold suppression above control cells treated with solvent” value ([4]; context UGAC) was 1.91 fold, the “fold suppression above control cells treated with solvent” value ([4]; context UGAG) was 0.45 fold and the “fold suppression above control cells treated with solvent” value ([4]; context UGAU) was 6.74 fold. For the same substance, the “presence of full-length dystrophin in myotubes (immunostaining, C-terminus antibody)” value (dystrophin [5]) was “full-length dystrophin protein is produced and localized to the muscle myotubes; also recorded: Dystrophin was present” and the “dystrophin in TA muscle (immunostaining)” value (dystrophin [6]) was “positive staining for dystrophin”.

From patent US7291461B2, “Methods for identifying small molecules that modulate premature translation termination and nonsense mRNA decay” (PTC Therapeutics, Inc., priority 2002, dated 2007)
